The values below come from article PMC8861095, “Neurotoxicological profile of the hallucinogenic compound 25I-NBOMe” (Scientific Reports, 2022).

Series [1] has as its system rat primary cortical cultures. Further details: method as in PMID 31078573. To be noted: 30 μM; did not recover after 19 h of washout period; cited from earlier work.
The test system of series [2] is DNA. Further details: method as in PMID 33337517. To be noted: 0.3 mg/kg; cited from earlier work.
Another series has as its system PC12 cells. To be noted: 25–400 µM; cited from earlier work.
The next series relates to SH-SY5Y cells. To be noted: cited from earlier work.
For another series, the system named is SN4741 cells. The following applies: 25–400 µM; cited from earlier work.
Series [3] concerns DNA. The series can be described thus: Alkaline comet assay on nuclei from frontal cortex and hippocampus. Type of series: in vivo, rat. To be noted: for Damaging effect on DNA compared with 25I-NBOMe: frontal cortex and hippocampus, LSD 0.05 mg/kg, MDMA 5 mg/kg, 25I-NBOMe 0.3 mg/kg; for DNA damage (tail moment): vs control; for Tail moment after four injections compared with the acute one: 5 mg/kg ip × 4 vs acute. The procedure:
Animals received single or multiple (once per day for seven days) subcutaneous injections of 25I-NBOMe dissolved in 0.9% NaCl at a dose of 0.3 mg/kg/2 ml. The control group was treated with 0.9% NaCl solution in the same way. All procedures were performed 72 h after the last injection. The time point of 72 h was chosen due to the possible generation of neurotoxicity via oxidative stress caused by reactive oxygen species (ROS). Exceptionally, for initial 25I-NBOMe brain distribution studies, rats received the drug in the dose of 1 and 10 mg/kg and were sacrificed 15 min after the drug administration. The rat blood plasma and brain tissues were collected immediately after rats’ decapitation. LSD (0.05 mg/kg, ip) was given daily for 7 days in a volume of 1 ml/kg, while MDMA 5 mg/kg, ip was injected in a volume of 2 ml/kg every second day (overall 4 injections).
The alkaline comet assay was performed with the use of CometAssay® Reagent Kit for Single Cell Gel Electrophoresis Assay. At 72 h after the acute and chronic treatment with 25I-NBOMe (0.3 mg/kg, sc × 7 days), LSD (0.05 mg/kg, ip × 7 days) or MDMA (5 mg/kg, ip × 4 doses every second day) animals were sacrificed by decapitation and the frontal cortex (that consist of the sum of FC and mPFC) and hippocampus were dissected. After homogenization and several purification and centrifugation stages (as described previously in[17]), the nuclear suspension was obtained using a sucrose gradient (2.8 M/2.6 M, bottom to top). The nuclear fraction was mixed with low melting point agarose and transferred immediately onto CometSlides™. The following steps, including membrane lysis, DNA unwinding, alkaline electrophoresis, and staining (SYBR® Gold), were carried out according to Trevigen CometAssay® protocol. Stained sections were acquired and analyzed under a fluorescence microscope (Nikon Eclipse50i, Japan) equipped with a camera and NIS Elements software. The data was analyzed using OpenComet software v.1.3 (cometbio.org), a plugin of ImageJ program v.1.47 (NIH, Bethesda, MD, USA). DNA damage was presented as a tail moment. Tail moment incorporates a measure of both the smallest detectable size of migrating DNA (reflected by the comet tail length) and the number of damaged pieces (represented by the intensity of DNA in the tail).

Details of series [4]: method as in PMID 20956470. To be noted: cited from earlier work.

Take `COc1cc(CCNCc2ccccc2OC)c(OC)cc1Br` [25B-NBOMe]: the Neuronal activity result in series [1] is on record as “decreased neuronal activity”. In addition, the “DNA damage in the rat frontal cortex” value with DNA [2] was “potent in damaging DNA”.
Consider `COc1cc(CCNCc2ccccc2OC)c(OC)cc1Cl` [25C-NBOMe], for which the Cell viability result in the series on PC12 cells, in the series with SH-SY5Y cells (25–400 µM) and in the series with SN4741 cells was “potent reduction” throughout. Also, the “Potency to reduce SH-SY5Y cells in respect to methamphetamine” value in the series on SH-SY5Y cells is listed as 50 times.
As for `CCN(CC)C(=O)[C@@H]1C=C2c3cccc4[nH]cc(c34)C[C@H]2N(C)C1` [LSD, lysergic acid diethylamide], the “Damaging effect on DNA compared with 25I-NBOMe” value with DNA [3] is “weaker in its damaging effect on DNA than 25I-NBOMe”. The “DNA damage after chronic administration compared with a single dose” value with DNA [3] (frontal cortex, 0.05 mg/kg ip × 7 vs single, 72 h) was “significantly greater after chronic administration”. Also, the “DNA damage (tail moment)” value with DNA [3] (frontal cortex, single and 7-day treatment 0.05 mg/kg ip, 72 h) is on record as “caused DNA damage”; in the series on DNA [3] (hippocampus, acute and chronic (× 7) 0.05 mg/kg ip, 72 h), “significant increase in the tail moment value”. The “DNA damage after repeated injections compared with a single dose” value with DNA [3] (hippocampus, 0.05 mg/kg ip × 7 vs single, 72 h) is recorded as “higher DNA damage than the single dose”.
Consider `CNC(C)Cc1ccc2c(c1)OCO2` (centres unmarked) [MDMA, 3,4-methylenedioxymethamphetamine], for which, in the series on DNA [3], the “Damaging effect on DNA compared with 25I-NBOMe” value is reported as “nearly equal to 25I-NBOMe in oxidative damage of DNA”. For the same compound, the “Tail moment after four injections compared with the acute one” value is recorded as “stronger increase in the tail moment value” in the series on DNA [3] (frontal cortex, 72 h) and “stronger increase in the tail moment value” with DNA [3] (hippocampus, 72 h). For the same compound, the “DNA damage (tail moment)” value in the series with DNA [3] (frontal cortex, acute and chronic (4 injections every second day) 5 mg/kg ip, 72 h) is given as “exhibited DNA damaging properties”; with DNA [3] (hippocampus, acute and chronic (4 injections every second day) 5 mg/kg ip, 72 h), “exhibited DNA damaging properties”.
With `COc1cc(CCNCc2ccccc2OC)c(OC)cc1I` [^11C-CIMBI-5], the “Location in brain shortly after intravenous injection” value in series [4] is “located in the cortex and the lower range in the cerebellum”.
